Results reported in patent US4057684A, “Alkyl amino-glucopyranoside derivative and process for producing the same” (priority 1975, dated 1977).
“And” between values parts separate entries of the source, which are not always exact repeats. Equal entries are not always repeated. “Also recorded” adds a separate entry of the source. Where two headings read alike, the source gives them in different places.

Legend:
tumor = details: in vivo; cited from earlier work
[1] = cited from earlier work
[2] = cited from earlier work; remark: listed apart in the source
[3] = cited from earlier work; for bone marrow toxicity: in vivo
[4] = test system: Nakahara-Fukuoka sarcoma (NFS); experiment: antitumor effect against Nakahara-Fukuoka sarcoma (NFS) implanted in mice; assay type: in vivo, mouse (ICR)
Description: (§1) Results of pharmacological studies for amino-glucopyranoside [I] according to the invention are described below. The test compounds which were used included methyl N-carbamyl-N'-(2-chloroethyl)-N'-nitroso-2-amino-2-deoxy-α-D-glucopyranoside and methyl N-carbamyl-N'-(2-chloroethyl)-N'-nitroso-6-amino-6-deoxy-α-D-glucopyranoside (hereinafter abbreviated to 2MCαG and 6MCαG, respectively). The control compounds which were employed were 1-(2-chloroethyl)-3-cyclohexyl-1-nitrosoourea (hereinafter abbreviated to CCNU), which had been widely applied as a control compound in such a pharmacological test of the streptozotocin derivatives, and GCNU referred to previously. The tumor systems which were used were leukemia L-1210, Nakahara-Fukuoka sarcoma, adenocarcinoma-755, ascites sarcoma 180 and Ehrlich ascites carcinoma (hereinafter abbreviated to L-1210, NFS, Ca-755, S-180A and EAC, respectively), and the antitumor activities were determined by a procedure of the National Cancer Center, Tokyo (A. Hoshi et al.: Farumashia 9, 464(1973)). The test animals which were used were ICR and BDF1 mice.
(§2) ^a Treatment was initiated 24 hr after implantation of tumor (day 1):
(§3) D1~5 = qd, day 1~5; D1 = day 1 only.
(§4) ^b T/C is expressed as the tumor weight ratio in solid tumors or tota
(§5) packed cell volume ratio in ascites tumors of treated/control.

[5] = test system: adenocarcinoma-755 (Ca-755); experiment: antitumor effect against adenocarcinoma-755 (Ca-755) implanted in mice; assay type: in vivo, mouse (BDF1)
Description: as §1, §2, §3, §4, §5

[6] = test system: ascites sarcoma 180 (S-180A); experiment: antitumor effect against ascites sarcoma 180 (S-180A) implanted in mice; assay type: in vivo, mouse (ICR)
Description: as §1, §2, §3, §4, §5

[7] = test system: Ehrlich ascites carcinoma (EAC); experiment: antitumor effect against Ehrlich ascites carcinoma (EAC) implanted in mice; assay type: in vivo, mouse (ICR)
Description: as §1, §2, §3, §4, §5

leukemia L-1210 = experiment: increase in life span and survival of leukemia L-1210 implanted mice; assay type: in vivo, mouse (BDF1)
Description: as §1, §2, §3
^d % increase in life span (mean survival time) over controls.
^e 60 days survivors/total in treated group.

[8] = peripheral white blood cell counts (bone marrow toxicity) and survival in normal male ICR mice; assay type: in vivo, mouse (ICR)
Method: Such peripheral white blood cell counts were performed as follows: Normal male ICR mice were used in groups of tens and the test compounds for treatment were made into their respective solutions. 2MCαG and 6MCαG were dissolved in physiological saline solutions, while CCNU and GCNU were suspended in 0.5% CMC aqueous solution and 50% PEG aqueous solution, respectively. A single administration at volume of 1 ml per 100 g body weight of animal (0.1 ml/10 g) was given intraperitoneally, and the peripheral white blood cell counts were performed 3, 8 and 15 days after administration of the test compounds.

[9] = acute toxicity (LD50) in mice; assay type: in vivo, mouse (ICR); details: mouse, in vivo, ICR mice
[10] = blood sugar level / diabetogenic activity; assay type: in vivo, rat (male Wister)
bacteria = experiment: antibacterial activity, broth dilution method
[11] = test system: solid as well as ascites tumor systems; experiment: antitumor activity in the tumor systems (overall); assay type: in vivo, mouse; details: mouse, in vivo
Description: as §1

[12] = 3.2 mg/kg/day ip D1~5, ICR mice
[13] = 6.3 mg/kg/day ip D1~5, ICR mice
[14] = 12.5 mg/kg/day ip D1~5, ICR mice
[15] = 15.0 mg/kg/day ip D1~5, ICR mice
[16] = 20.0 mg/kg/day ip D1~5, ICR mice
[17] = 3.2 mg/kg/day ip D1~5, BDF1 mice
[18] = 6.3 mg/kg/day ip D1~5, BDF1 mice
[19] = 15.0 mg/kg/day ip D1~5, BDF1 mice
[20] = 3.2 mg/kg/day ip, 5 successive days
[21] = 3.2 mg/kg/day ip D1~5, listed as 2MCaαG

## O=NN(CCCl)C(=O)N[C@H]1C(O)O[C@H](CO)[C@@H](O)[C@@H]1O (stereo partly drawn) [2-[3-(2-chloroethyl)-3-nitrosoureido]-2-deoxy-D-glucopyranose]
tumor
  antitumor activity: improved antitumor activity
[1]
  water solubility: water-soluble
[2]; test animals
  diabetogenic activity: diabetogenic
[3]
  bone marrow toxicity: low bone marrow toxicity

## CO[C@H]1O[C@H](CO)[C@@H](O)[C@H](O)[C@H]1NC(=O)N(CCCl)N=O [Example 2MCαG, methyl N-carbamyl-N'-(2-chloroethyl)-N'-nitroso-2-amino-2-deoxy-α-D-glucopyranoside]
[4]; [12]
  Activity: - (100~71% = -)
  T/C: 86.1%
[4]; [13]
  Activity: + (70~51% = +)
  T/C: 55.2%
[4]; [14]
  T/C: 44.3%
[4]; [15]
  Activity: ++ (50~21% = ++)
  T/C: 29.2%
[4]; [16]
  Activity: Toxic
  died/used: 6/6
[4]; ip, 5 successive days
  antitumor effect compared with CCNU: more effective than CCNU
[5]; [17]
  Activity: ++ (50~21% = ++)
  T/C: 22.4%
[5]; [18]
  Activity: +++ (20~0% = +++)
  T/C: 9.6%
[5]; 12.5 mg/kg/day ip D1~5, BDF1 mice
  T/C: 3.3%
[5]; [19]
  Activity: Toxic
  T/C: 0.3%
  died/used: 6/6
[5]; ip, 5 successive days
  antitumor effect compared with CCNU: more effective than CCNU
[6]; [12]
  Activity: +++ (10~0% 10~0% = +++)
  T/C: 0%
[6]; [20]
  accumulation of ascites tumor cells: no accumulation of ascites tumor cells was observable
[6]; [14]
  T/C: 0%
[7]; [12]
  Activity: +++ (10~0% 10~0% = +++)
  T/C: 0%
[7]; [20]
  accumulation of ascites tumor cells: no accumulation of ascites tumor cells was observable
[7]; [14]
  T/C: 0%
Leukemia L-1210; 1.0 mg/kg/day ip D1~5
  ILS: 48%
  Survivors (60 days survivors/total): 0/6
Leukemia L-1210; 2.0 mg/kg/day ip D1~5
  ILS: > 249%
  Survivors (60 days survivors/total): 1/6
Leukemia L-1210; 2.0 mg/kg/day po D1~5
  ILS: > 143%
  Survivors (60 days survivors/total): 1/6
Leukemia L-1210; 3.2 mg/kg/day ip D1~5
  ILS: 394%
  Survivors (60 days survivors/total): 3 out of 6
Leukemia L-1210; [21]
  ILS: > 394%
  Survivors (60 days survivors/total): 3/6
Leukemia L-1210; 3.2 mg/kg/day po D1~5
  ILS: > 141%
  Survivors (60 days survivors/total): 1/6
Leukemia L-1210; 4.0 mg/kg/day ip D1~5
  ILS: > 349%
  Survivors (60 days survivors/total): 2/6
Leukemia L-1210; 6.3 mg/kg ip D1 only
  ILS: 128%
  Survivors (60 days survivors/total): 0/6
Leukemia L-1210; 6.3 mg/kg/day ip D1~5
  ILS: > 198%
  Survivors (60 days survivors/total): 1/6
Leukemia L-1210; 6.3 mg/kg/day po D1~5
  ILS: 343% and > 343%
  Survivors (60 days survivors/total): 2 out of 6 and 2/6
Leukemia L-1210; 8.0 mg/kg ip D1 only
  ILS: > 432%
  Survivors (60 days survivors/total): 3/6
Leukemia L-1210; 10.0 mg/kg ip D1 only
  ILS: > 717%
  Survivors (60 days survivors/total): 6/6
Leukemia L-1210; 10.0 mg/kg/day ip D1~5
  ILS: > 190%
  Survivors (60 days survivors/total): 1/6
Leukemia L-1210; 12.5 mg/kg/day ip D1~5
  ILS: > 160%
  Survivors (60 days survivors/total): 1/6
Leukemia L-1210; 12.5 mg/kg/day po D1~5
  ILS: 211%
  Survivors (60 days survivors/total): 0/6
Leukemia L-1210; 20.0 mg/kg ip D1 only
  ILS: > 717%
  Survivors (60 days survivors/total): 6/6
Leukemia L-1210; 20.0 mg/kg/day ip D1~5
  ILS: 58%
  Survivors (60 days survivors/total): 0/6
Leukemia L-1210; 25.0 mg/kg ip D1 only
  ILS: > 539%
  Survivors (60 days survivors/total): > 4/6
Leukemia L-1210; ip
  single dose compared with five dose schedule: might be more effective than a five dose schedule
Leukemia L-1210; mouse, in vivo
  activity against L-1210 compared with CCNU and GCNU: more active against L-1210
Leukemia L-1210; single 10-20 mg/kg ip
  ILS: 717%
  animals survived: all 6 animals survived
[8]; 10 mg/kg ip single
  Death rate (death/used): 0/10
[8]; 10 mg/kg ip single, day 3
  Average count of WBC: 74.0±4.6 x 10^2 WBC/mm^3
[8]; 10 mg/kg ip single, day 8
  Average count of WBC: 105.6±4.5 x 10^2 WBC/mm^3
[8]; 10 mg/kg ip single, day 15
  Average count of WBC: 131.8±5.4 x 10^2 WBC/mm^3
[8]; 20 mg/kg ip single
  Death rate (death/used): 2/10
[8]; 20 mg/kg ip single, day 3
  Average count of WBC: 46.3±9.5 x 10^2 WBC/mm^3
[8]; 20 mg/kg ip single, day 8
  Average count of WBC: 101.0±16.5 x 10^2 WBC/mm^3
[8]; 20 mg/kg ip single, day 15
  Average count of WBC: 129.4±20.1 x 10^2 WBC/mm^3
[8]; 40 mg/kg ip single
  Death rate (death/used): 10/10
[8]; 40 mg/kg ip single, day 3
  Average count of WBC: 30.8±2.8 x 10^2 WBC/mm^3
[8]; 60 mg/kg ip single
  Death rate (death/used): 10/10
[8]; 60 mg/kg ip single, day 3
  Average count of WBC: 35.4±2.9 x 10^2 WBC/mm^3
[8]; 80 mg/kg ip single
  Death rate (death/used): 10/10
[8]; 80 mg/kg ip single, day 3
  Average count of WBC: 32.0±3.8 x 10^2 WBC/mm^3
[8]; LD10 doses
  incidence of leukopenia: comparatively mild with rapid return to pretreatment levels
[8]; mouse, in vivo
  bone marrow toxicity: improved bone marrow toxicity
  bone marrow toxicity compared with CCNU: less toxic
  bone marrow toxicity compared with GCNU: equivalent values as GCNU
[9]; 5 doses, qd
  LD50: 16 mg/kg
[9]; single dose
  LD50: 48 mg/kg
[10]; one-month administration, qd, day 1-30, male Wister rat, glucose oxidase method
  blood sugar level: neither elevation nor depression tendencies
[10]; rat, in vivo
  diabetogenic activity: free from diabetogenic
bacteria
  antibacterial activity: without any antibacterial activities; also recorded: free from diabetogenic and antibacterial activities
[11]
  antitumor activity: activity against solid as well as ascites tumor systems

## CC(=O)OC[C@H]1OC(OC(C)=O)[C@H](NC(=O)N(CCCl)N=O)[C@@H](OC(C)=O)[C@@H]1OC(C)=O (stereo partly shown) [GCNU, 3-(tetraacetylglucopyranos-2-yl)-1-(2-chloroethyl)-1-nitrosourea, reference compound]
[8]; 10 mg/kg ip single
  Death rate (death/used): 0/10
[8]; 10 mg/kg ip single, day 3
  Average count of WBC: 83.1±4.5 x 10^2 WBC/mm^3
[8]; 10 mg/kg ip single, day 8
  Average count of WBC: 140.3±15.7 x 10^2 WBC/mm^3
[8]; 10 mg/kg ip single, day 15
  Average count of WBC: 116.0±10.0 x 10^2 WBC/mm^3
[8]; 20 mg/kg ip single
  Death rate (death/used): 6/10
[8]; 20 mg/kg ip single, day 3
  Average count of WBC: 60.4±3.6 x 10^2 WBC/mm^3
[8]; 20 mg/kg ip single, day 8
  Average count of WBC: 131.4±17.4 x 10^2 WBC/mm^3
[8]; 20 mg/kg ip single, day 15
  Average count of WBC: 106.0±9.0 x 10^2 WBC/mm^3
[8]; 40 mg/kg ip single
  Death rate (death/used): 10/10
[8]; 40 mg/kg ip single, day 3
  Average count of WBC: 33.2±3.3 x 10^2 WBC/mm^3
[8]; 60 mg/kg ip single
  Death rate (death/used): 10/10
[8]; 60 mg/kg ip single, day 3
  Average count of WBC: 26.5±3.5 x 10^2 WBC/mm^3
[2]; test animals
  diabetogenic activity: nondiabetogenic activity
[3]
  bone marrow toxicity: reduced bone marrow toxicity
[3]; single ip, 15 mg/kg
  leukopenia: without causing leukopenia

## CN(N=O)C(=O)N[C@H]1C(O)O[C@H](CO)[C@@H](O)[C@@H]1O (stereo partly drawn) [streptozotocin, N-carbamyl-N'-methyl-N'-nitroso-2-amino-2-deoxy-D-glucopyranose]
tumor
  antitumor activity: exhibits an antitumor activity
[2]; in vivo
  diabetogenic activity: diabetogenic
